Tests used:
Conditions in all cases: treatment: drug + dasatinib (fixed dose, not stated); 5 days
ACHN [1] = test: AUC of dose-response viability curve, drug + dasatinib, normalised to DMSO (arbitrary (AUC of normalised viability)); higher = less growth inhibition
Experimental: (§1)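 Primary HTS combination arm: 8 RCC cell lines treated with 8 doses (up to 10 uM) of each library drug plus a fixed dose of dasatinib (dose not stated) for 5 days; viability read by CellTiter-Glo and normalised to DMSO. GI50 was fitted with XLfit, AUC is the area under the dose-response curve, and minimum viability is the lowest fraction of DMSO viability across doses.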

A498 [2] = test: as above
Experimental: as §1

CAKI-1 [3] = test: as above
Experimental: as §1

786-O [4] = test: as above
Experimental: as §1

769-P [5] = test: as above
Experimental: as §1

SN12C [6] = test: as above
Experimental: as §1

UO-31 [7] = test: as above
Experimental: as §1

TK-10 [8] = test: as above
Experimental: as §1

ACHN [9] = test: minimum viability across doses, drug + dasatinib, relative to DMSO (fraction); higher = less growth inhibition
Experimental: as §1

A498 [10] = test: as above
Experimental: as §1

CAKI-1 [11] = test: as above
Experimental: as §1

786-O [12] = test: as above
Experimental: as §1

769-P [13] = test: as above
Experimental: as §1

SN12C [14] = test: as above
Experimental: as §1

UO-31 [15] = test: as above
Experimental: as §1

TK-10 [16] = test: as above
Experimental: as §1

ACHN [17] = test: GI50 of drug in presence of dasatinib; higher = less potent
Experimental: as §1

A498 [18] = test: as above
Experimental: as §1

CAKI-1 [19] = test: as above
Experimental: as §1

786-O [20] = test: as above
Experimental: as §1

769-P [21] = test: as above
Experimental: as §1

SN12C [22] = test: as above
Experimental: as §1

UO-31 [23] = test: as above
Experimental: as §1

TK-10 [24] = test: as above
Experimental: as §1

Compound | AUC of dose-response viability curve (ACHN [1]) | AUC of dose-response viability curve (A498 [2]) | AUC of dose-response viability curve (CAKI-1 [3]) | AUC of dose-response viability curve (786-O [4]) | AUC of dose-response viability curve (769-P [5]) | AUC of dose-response viability curve (SN12C [6]) | AUC of dose-response viability curve (UO-31 [7]) | AUC of dose-response viability curve (TK-10 [8]) | minimum viability across doses (ACHN [9]) | minimum viability across doses (A498 [10]) | minimum viability across doses (CAKI-1 [11]) | minimum viability across doses (786-O [12]) | minimum viability across doses (769-P [13]) | minimum viability across doses (SN12C [14]) | minimum viability across doses (UO-31 [15]) | minimum viability across doses (TK-10 [16]) | GI50 of drug (ACHN [17]) [nM] | GI50 of drug (A498 [18]) [nM] | GI50 of drug (CAKI-1 [19]) [nM] | GI50 of drug (786-O [20]) [nM] | GI50 of drug (769-P [21]) [nM] | GI50 of drug (SN12C [22]) [nM] | GI50 of drug (UO-31 [23]) [nM] | GI50 of drug (TK-10 [24]) [nM]
CC(O)C(=O)O.CC(O)C(=O)O.CN1CCN(c2ccc3nc(-c4c(N)c5c(F)cccc5[nH]c4=O)[nH]c3c2)CC1 [Dovitinib Dilactic acid (TKI258 Dilactic acid)] + Cc1nc(Nc2ncc(C(=O)Nc3c(C)cccc3Cl)s2)cc(N2CCN(CCO)CC2)n1 [dasatinib] | 0.989 | 3.14 | 1.45 | 2.64 | 2.2 | 1.8 | 3.44 | 2.12 | 0.0981 | 0.303 | 0.0435 | 0.139 | 0.0213 | 0.0502 | 0.124 | 0.289 | 11.7 | 4270 | 98.2 | 3480 | 1750 | 352 | 1320 | 1070
COc1cc2nccc(Oc3ccc(NC(=O)NC4CC4)c(Cl)c3)c2cc1C(N)=O [E7080 (Lenvatinib)] + Cc1nc(Nc2ncc(C(=O)Nc3c(C)cccc3Cl)s2)cc(N2CCN(CCO)CC2)n1 [dasatinib] | 1.96 | 3.47 | 1.81 | 2.62 | 2.26 | 2.22 | 1.8 | 2.65 | 0.247 | 0.795 | 0.0901 | 0.674 | 0.321 | 0.312 | 0.338 | 0.682 | 1260 | > 10000 | 431 | > 10000 | 4520 | > 10000 | 7260 | > 10000
Cc1cc(Nc2cc(N3CCN(C)CC3)nc(/C=C/c3ccccc3)n2)n[nH]1.O=C(O)[C@H](O)[C@@H](O)C(=O)O [ENMD-2076] + Cc1nc(Nc2ncc(C(=O)Nc3c(C)cccc3Cl)s2)cc(N2CCN(CCO)CC2)n1 [dasatinib] | 1.32 | 2.4 | 1.4 | 1.78 | 1.92 | 1.81 | 2.5 | 1.91 | 0.0393 | 0.247 | 0.00949 | 0.0877 | 0.131 | 0.0567 | 0.0131 | 0.164 | 77.4 | 1270 | 194 | 439 | 1000 | 400 | 886 | 396
C#Cc1cccc(Nc2ncnc3cc(OCCOC)c(OCCOC)cc23)c1.Cl [Erlotinib HCl] + Cc1nc(Nc2ncc(C(=O)Nc3c(C)cccc3Cl)s2)cc(N2CCN(CCO)CC2)n1 [dasatinib] | 1.73 | 3.48 | 1.97 | 2.65 | 1.94 | 2.54 | 3.03 | 2.4 | 0.114 | 0.718 | 0.125 | 0.469 | 0.234 | 0.589 | 0.249 | 0.37 | 206 | > 10000 | 1060 | 8920 | 440 | > 10000 | 5540 | 2440
CN1CC[C@H](c2c(O)cc(O)c3c(=O)cc(-c4ccccc4Cl)oc23)[C@H](O)C1.Cl [Flavopiridol hydrochloride] + Cc1nc(Nc2ncc(C(=O)Nc3c(C)cccc3Cl)s2)cc(N2CCN(CCO)CC2)n1 [dasatinib] | 0.849 | 1.74 | 1.02 | 0.837 | 1.34 | 1.28 | 1.98 | 1.53 | 0.00412 | 0.0115 | 0.0304 | 0.00472 | 0.0135 | 0.00632 | 0.00894 | 0.168 | 24.5 | 171 | 33.6 | 34.9 | 86 | 106 | 252 | 119
CC(C)NC[C@@H](C(=O)N1CCN(c2ncnc3c2[C@H](C)C[C@H]3O)CC1)c1ccc(Cl)cc1 [GDC-0068] + Cc1nc(Nc2ncc(C(=O)Nc3c(C)cccc3Cl)s2)cc(N2CCN(CCO)CC2)n1 [dasatinib] | 1.43 | 3.38 | 2.12 | 1.4 | 2.59 | 2.39 | 4.11 | 2.07 | 0.247 | 0.74 | 0.311 | 0.21 | 0.628 | 0.563 | 0.0701 | 0.292 | 6.5 | > 10000 | 1750 | 24.5 | > 10000 | > 10000 | 4910 | 1190
OCCn1cc(-c2ccc3c(c2)CC/C3=N\O)c(-c2ccncc2)n1 [GDC-0879] + Cc1nc(Nc2ncc(C(=O)Nc3c(C)cccc3Cl)s2)cc(N2CCN(CCO)CC2)n1 [dasatinib] | 2.12 | 3.55 | 2.86 | 2.39 | 2.36 | 2.62 | 3.45 | 3.05 | 0.354 | 0.804 | 0.738 | 0.568 | 0.605 | 0.686 | 0.894 | 0.716 | 4230 | > 10000 | > 10000 | > 10000 | > 10000 | > 10000 | > 10000 | > 10000
CS(=O)(=O)N1CCN(Cc2cc3nc(-c4cccc5[nH]ncc45)nc(N4CCOCC4)c3s2)CC1 [GDC-0941] + Cc1nc(Nc2ncc(C(=O)Nc3c(C)cccc3Cl)s2)cc(N2CCN(CCO)CC2)n1 [dasatinib] | 1.55 | 2.56 | 1.48 | 1.81 | 1.73 | 1.96 | 1.71 | 1.93 | 0.163 | 0.319 | 0.0678 | 0.00743 | 0.111 | 0.235 | 0.0152 | 0.171 | 82.6 | 3090 | 111 | 225 | 234 | 386 | 172 | 302
Cc1c(CN2CCN(C(=O)[C@H](C)O)CC2)sc2c(N3CCOCC3)nc(-c3cnc(N)nc3)nc12 [GDC-0980 (RG7422)] + Cc1nc(Nc2ncc(C(=O)Nc3c(C)cccc3Cl)s2)cc(N2CCN(CCO)CC2)n1 [dasatinib] | 1.12 | 2.4 | 1.36 | 1.47 | 1.44 | 1.45 | 2.18 | 1.47 | 0.0521 | 0.17 | 0.02 | 0.00396 | 0.0451 | 0.0934 | 0.00909 | 0.0374 | 25.5 | 658 | 102 | 81.1 | 80.4 | 119 | 268 | 103
CN1CCN(C2CCN(C(=O)Nc3cc(Oc4ccc(NC(=O)C5(C(=O)Nc6ccc(F)cc6)CC5)c(F)c4)ccn3)CC2)CC1 [Golvatinib (E7050)] + Cc1nc(Nc2ncc(C(=O)Nc3c(C)cccc3Cl)s2)cc(N2CCN(CCO)CC2)n1 [dasatinib] | 1.63 | 3.93 | 1.89 | 1.93 | 2.3 | 2.19 | 4.48 | 2.09 | 0.0563 | 0.335 | 0.0248 | 0.0302 | 0.131 | 0.191 | 0.0151 | 0.154 | 368 | 9520 | 541 | 434 | 3670 | 1620 | 3090 | 886
CCOC(=O)C1=C(N)Oc2ccc(Br)cc2[C@H]1[C@H](C#N)C(=O)OCC [HA14-1] + Cc1nc(Nc2ncc(C(=O)Nc3c(C)cccc3Cl)s2)cc(N2CCN(CCO)CC2)n1 [dasatinib] | 2.17 | 3.14 | 2.35 | 2.65 | 2.77 | 2.54 | 3.92 | 2.71 | 0.579 | 0.797 | 0.628 | 0.624 | 0.737 | 0.69 | 0.952 | 0.725 | > 10000 | > 10000 | > 10000 | > 10000 | > 10000 | > 10000 | > 10000 | > 10000
COc1ccc(S(=O)(=O)N(C(C)=O)c2ccccc2/C=C/c2cc[n+]([O-])cc2)cc1 [HMN-214] + Cc1nc(Nc2ncc(C(=O)Nc3c(C)cccc3Cl)s2)cc(N2CCN(CCO)CC2)n1 [dasatinib] | 1.15 | 2.04 | 1.32 | 1.18 | 1.95 | 1.78 | 2.65 | 2.02 | 0.102 | 0.124 | 0.121 | 0.00332 | 0.0839 | 0.172 | 0.00841 | 0.297 | 5.38 | 387 | 74.4 | 99.7 | 278 | 342 | 499 | 609
CCS(=O)(=O)Nc1ccc2c(c1)/C(=C(/Nc1ccc(CN3CCCCC3)cc1)c1ccccc1)C(=O)N2 [Hesperadin] + Cc1nc(Nc2ncc(C(=O)Nc3c(C)cccc3Cl)s2)cc(N2CCN(CCO)CC2)n1 [dasatinib] | 1.18 | 2.05 | 1.15 | 1.2 | 1.86 | 1.26 | 2.5 | 2.17 | 0.00666 | 0.109 | 0.0323 | 0.0121 | 0.0628 | 0.00226 | 0.0118 | 0.0643 | 14.7 | 441 | 45.5 | 46.6 | 327 | 82.6 | 357 | 713
O=C(Nc1cc(C(F)(F)F)cc(C(F)(F)F)c1)c1cc(Cl)ccc1O [IMD 0354] + Cc1nc(Nc2ncc(C(=O)Nc3c(C)cccc3Cl)s2)cc(N2CCN(CCO)CC2)n1 [dasatinib] | 1.29 | 2.92 | 1.85 | 1.62 | 1.9 | 1.97 | 4.26 | 2.03 | 0.00153 | 0.0122 | 0.0138 | 0.00625 | 0.00617 | 0.00339 | 0.0139 | 0.07 | 220 | 1700 | 481 | 373 | 557 | 1340 | 2030 | 759

From the supplement of paper PMC8149375
